Activity calls are given as the source filed them. No rule for the calls is given here.

The test system of the data set is rodent lifetime carcinogenesis bioassay, tumor incidence TD50. In words: chronic cancer bioassays in animals – CPDB, compiled studies (AID 1745844).

Take `O=P(O)(OCC(Br)CBr)OCC(Br)CBr` (stereo unspecified): the TD50 (rat, strain Wistar, females, in feed, site: esophagus, lesion: squamous-cell papilloma, dosed 78 weeks, study length 78 weeks) was determined as 107 mg/kg/day; the TD50 (rat, strain Wistar, females, in feed, site: esophagus, lesion: squamous-cell papilloma, dosed 96 weeks, study length 101 weeks) is 394 mg/kg/day; the TD50 (rat, strain Wistar, females, in feed, site: forestomach, lesion: several types, types named in the paper, dosed 78 weeks, study length 78 weeks) came out at 19.6 mg/kg/day; the TD50 (rat, strain Wistar, females, in feed, site: forestomach, lesion: several types, types named in the paper, dosed 96 weeks, study length 101 weeks) was 40 mg/kg/day; the TD50 (rat, strain Wistar, females, in feed, site: forestomach, lesion: squamous-cell carcinoma, dosed 78 weeks, study length 78 weeks) is 171 mg/kg/day; the TD50 (rat, strain Wistar, females, in feed, site: forestomach, lesion: squamous-cell carcinoma, dosed 96 weeks, study length 101 weeks) is 301 mg/kg/day. The TD50 was 47.6 mg/kg/day (rat, strain Wistar, females, in feed, site: forestomach, lesion: squamous-cell papilloma, dosed 52 weeks, study length 52 weeks); 34.5 mg/kg/day (rat, strain Wistar, females, in feed, site: forestomach, lesion: squamous-cell papilloma, dosed 78 weeks, study length 78 weeks); 60.3 mg/kg/day (rat, strain Wistar, females, in feed, site: forestomach, lesion: squamous-cell papilloma, dosed 96 weeks, study length 101 weeks); 1250 mg/kg/day (rat, strain Wistar, females, in feed, site: kidney, lesion: renal-cell adenoma, dosed 96 weeks, study length 101 weeks); 1250 mg/kg/day (rat, strain Wistar, females, in feed, site: kidney, lesion: renal-cell carcinoma, dosed 96 weeks, study length 101 weeks); 608 mg/kg/day (rat, strain Wistar, females, in feed, site: kidney, lesion: several types, types named in the paper, dosed 96 weeks, study length 101 weeks). For the same compound, the TD50 runs as follows: (rat, strain Wistar, females, in feed, site: liver, lesion: hepatocellular adenoma, dosed 52 weeks, study length 52 weeks) 33.2 mg/kg/day; (rat, strain Wistar, females, in feed, site: liver, lesion: hepatocellular adenoma, dosed 78 weeks, study length 78 weeks) 20.6 mg/kg/day; (rat, strain Wistar, females, in feed, site: liver, lesion: hepatocellular carcinoma, dosed 52 weeks, study length 52 weeks) 35.1 mg/kg/day; (rat, strain Wistar, females, in feed, site: liver, lesion: hepatocellular carcinoma, dosed 78 weeks, study length 78 weeks) 20.1 mg/kg/day; (rat, strain Wistar, females, in feed, site: liver, lesion: hepatocellular carcinoma, dosed 96 weeks, study length 101 weeks) 37.1 mg/kg/day; (rat, strain Wistar, females, in feed, site: liver, lesion: several types, types named in the paper, dosed 52 weeks, study length 52 weeks) 11.8 mg/kg/day. Moreover, the TD50 was 11.9 mg/kg/day (rat, strain Wistar, females, in feed, site: liver, lesion: several types, types named in the paper, dosed 78 weeks, study length 78 weeks); 27.8 mg/kg/day (rat, strain Wistar, females, in feed, site: liver, lesion: several types, types named in the paper, dosed 96 weeks, study length 101 weeks); 107 mg/kg/day (rat, strain Wistar, females, in feed, site: small intestine, lesion: adenocarcinoma, dosed 78 weeks, study length 78 weeks); 179 mg/kg/day (rat, strain Wistar, females, in feed, site: small intestine, lesion: adenocarcinoma, dosed 96 weeks, study length 101 weeks); 301 mg/kg/day (rat, strain Wistar, females, in feed, site: tongue, lesion: several types, types named in the paper, dosed 96 weeks, study length 101 weeks); 107 mg/kg/day (rat, strain Wistar, females, in feed, site: tongue, lesion: squamous-cell papilloma, dosed 78 weeks, study length 78 weeks). Besides, the TD50 reads like this: (rat, strain Wistar, females, in feed, site: tongue, lesion: squamous-cell papilloma, dosed 96 weeks, study length 101 weeks) 403 mg/kg/day; (rat, strain Wistar, males, in feed, site: esophagus, lesion: several types, types named in the paper, dosed 90 weeks, study length 102 weeks) 45.1 mg/kg/day; (rat, strain Wistar, males, in feed, site: esophagus, lesion: squamous-cell papilloma, dosed 78 weeks, study length 78 weeks) 16.5 mg/kg/day; (rat, strain Wistar, males, in feed, site: esophagus, lesion: squamous-cell papilloma, dosed 90 weeks, study length 102 weeks) 62.1 mg/kg/day; (rat, strain Wistar, males, in feed, site: forestomach, lesion: several types, types named in the paper, dosed 52 weeks, study length 52 weeks) 38.1 mg/kg/day; (rat, strain Wistar, males, in feed, site: forestomach, lesion: several types, types named in the paper, dosed 90 weeks, study length 102 weeks) 37.8 mg/kg/day. In addition, the TD50 is, setting by setting: (rat, strain Wistar, males, in feed, site: forestomach, lesion: squamous-cell carcinoma, dosed 52 weeks, study length 52 weeks) 129 mg/kg/day; (rat, strain Wistar, males, in feed, site: forestomach, lesion: squamous-cell carcinoma, dosed 90 weeks, study length 102 weeks) 979 mg/kg/day; (rat, strain Wistar, males, in feed, site: forestomach, lesion: squamous-cell papilloma, dosed 52 weeks, study length 52 weeks) 60.9 mg/kg/day; (rat, strain Wistar, males, in feed, site: forestomach, lesion: squamous-cell papilloma, dosed 78 weeks, study length 78 weeks) 56.1 mg/kg/day; (rat, strain Wistar, males, in feed, site: forestomach, lesion: squamous-cell papilloma, dosed 90 weeks, study length 102 weeks) 43.5 mg/kg/day; (rat, strain Wistar, males, in feed, site: kidney, lesion: renal-cell adenoma, dosed 78 weeks, study length 78 weeks) 56.1 mg/kg/day. In addition, the TD50 stood at 45.1 mg/kg/day (rat, strain Wistar, males, in feed, site: kidney, lesion: renal-cell adenoma, dosed 90 weeks, study length 102 weeks); 129 mg/kg/day (rat, strain Wistar, males, in feed, site: kidney, lesion: renal-cell carcinoma, dosed 52 weeks, study length 52 weeks); 35 mg/kg/day (rat, strain Wistar, males, in feed, site: kidney, lesion: several types, types named in the paper, dosed 90 weeks, study length 102 weeks); 28.3 mg/kg/day (rat, strain Wistar, males, in feed, site: liver, lesion: hepatocellular adenoma, dosed 78 weeks, study length 78 weeks); 129 mg/kg/day (rat, strain Wistar, males, in feed, site: liver, lesion: hepatocellular carcinoma, dosed 52 weeks, study length 52 weeks); 129 mg/kg/day (rat, strain Wistar, males, in feed, site: liver, lesion: several types, types named in the paper, dosed 52 weeks, study length 52 weeks). Also, the TD50 is, setting by setting: (rat, strain Wistar, males, in feed, site: small intestine, lesion: adenocarcinoma, dosed 52 weeks, study length 52 weeks) 60.9 mg/kg/day; (rat, strain Wistar, males, in feed, site: small intestine, lesion: adenocarcinoma, dosed 90 weeks, study length 102 weeks) 79 mg/kg/day; (rat, strain Wistar, males, in feed, site: small intestine, lesion: adenoma, dosed 52 weeks, study length 52 weeks) 129 mg/kg/day; (rat, strain Wistar, males, in feed, site: small intestine, lesion: several types, types named in the paper, dosed 52 weeks, study length 52 weeks) 38.1 mg/kg/day; (rat, strain Wistar, males, in feed, site: tongue, lesion: squamous-cell carcinoma, dosed 78 weeks, study length 78 weeks) 56.1 mg/kg/day.

Take `CNC(=O)ON=C(SC)C(=O)N(C)C`: the carcinogen call is, setting by setting: (mouse, strain Charles River CD1, females, in feed, site: any site (literature study), lesion: several types, types named in the paper, dosed 104 weeks, study length 104 weeks) “negative (inactive)”; (mouse, strain Charles River CD1, males, in feed, site: any site (literature study), lesion: several types, types named in the paper, dosed 104 weeks, study length 104 weeks) “negative (inactive)”; (rat, strain Charles River CD (Sprague-Dawley), females, in feed, site: liver, lesion: hepatocellular hyperplastic nodule, dosed 104 weeks, study length 104 weeks) “negative (inactive)”; (rat, strain Charles River CD (Sprague-Dawley), males, in feed, site: liver, lesion: one or several types, types not named, dosed 104 weeks, study length 104 weeks) “negative (inactive)”.

`CCCCCC`: the TD50 is 84800 mg/kg/day (mouse, strain B6C3F1, females, inhaled, site: liver, lesion: hepatocellular carcinoma, dosed 105 weeks, study length 105 weeks); 30300 mg/kg/day (mouse, strain B6C3F1, females, inhaled, site: liver, lesion: several types, types named in the paper, dosed 105 weeks, study length 105 weeks); 10300 mg/kg/day (mouse, strain B6C3F1, females, inhaled, site: pituitary gland, lesion: adenoma, dosed 105 weeks, study length 105 weeks); 9460 mg/kg/day (mouse, strain B6C3F1, females, inhaled, site: pituitary gland, lesion: several types, types named in the paper, dosed 105 weeks, study length 105 weeks). Moreover, the carcinogen call is “negative (inactive)” (mouse, strain B6C3F1, males, inhaled, site: liver, lesion: several types, types named in the paper, dosed 105 weeks, study length 105 weeks); “negative (inactive)” (rat, strain Fischer 344, females, inhaled, site: nasal mucosa, lesion: one or several types, types not named, dosed 105 weeks, study length 105 weeks); “negative (inactive)” (rat, strain Fischer 344, males, inhaled, site: nasal mucosa, lesion: one or several types, types not named, dosed 105 weeks, study length 105 weeks).

As to `Clc1cc(Cl)cc(-c2cc(Cl)cc(Cl)c2)c1`, the carcinogen call (rat, strain Donryu, females, in feed, site: liver, lesion: one or several types, types not named, dosed 26 weeks, study length 84 weeks) is “negative (inactive)”.

For `C[C@]12C=CC(=O)C=C1CC[C@@H]1[C@@H]2C(=O)C[C@@]2(C)[C@H]1CC[C@]2(O)C(=O)CO`, the carcinogen call (mouse, strain Charles River CD1, females, in feed, site: liver, lesion: several types, types named in the paper, dosed 78 weeks, study length 78 weeks) is “negative (inactive)”; the carcinogen call (mouse, strain Charles River CD1, females, in feed, site: lung, lesion: alveolar/bronchiolar tumor, dosed 78 weeks, study length 78 weeks) was “negative (inactive)”; the carcinogen call (mouse, strain Charles River CD1, females, in feed, site: lung, lesion: undifferentiated carcinoma, dosed 78 weeks, study length 78 weeks) is “negative (inactive)”; the carcinogen call (mouse, strain Charles River CD1, males, in feed, site: liver, lesion: several types, types named in the paper, dosed 78 weeks, study length 78 weeks) was “negative (inactive)”; the carcinogen call (mouse, strain Charles River CD1, males, in feed, site: lung, lesion: alveolar/bronchiolar tumor, dosed 78 weeks, study length 78 weeks) is “negative (inactive)”.

On to `[Cu+2].[O-]c1cccc2cccnc12.[O-]c1cccc2cccnc12`, for which the TD50 runs as follows: (mouse, strain B6AKF1, females, oral dosing, site: any site (literature study), lesion: several types, types named in the paper, dosed 76 weeks, study length 76 weeks) 2490 mg/kg/day (inactive); (mouse, strain B6AKF1, males, oral dosing, site: any site (literature study), lesion: several types, types named in the paper, dosed 76 weeks, study length 76 weeks) 11200 mg/kg/day (inactive); (mouse, strain B6AKF1, males, oral dosing, site: liver, lesion: hepatoma, dosed 76 weeks, study length 76 weeks) 967 mg/kg/day (inactive); (mouse, strain B6C3F1, females, oral dosing, site: any site (literature study), lesion: several types, types named in the paper, dosed 76 weeks, study length 76 weeks) 2490 mg/kg/day (inactive); (mouse, strain B6C3F1, males, oral dosing, site: any site (literature study), lesion: several types, types named in the paper, dosed 76 weeks, study length 76 weeks) 2050 mg/kg/day (inactive). In addition, the carcinogen call (mouse, strain B6AKF1, females, oral dosing, site: liver, lesion: hepatoma, dosed 76 weeks, study length 76 weeks) was “negative (inactive)”; the carcinogen call (mouse, strain B6AKF1, females, oral dosing, site: lung, lesion: adenoma, dosed 76 weeks, study length 76 weeks) is “negative (inactive)”; the carcinogen call (mouse, strain B6AKF1, males, oral dosing, site: lung, lesion: adenoma, dosed 76 weeks, study length 76 weeks) was “negative (inactive)”; the carcinogen call (mouse, strain B6C3F1, females, oral dosing, site: liver, lesion: hepatoma, dosed 76 weeks, study length 76 weeks) was “negative (inactive)”; the carcinogen call (mouse, strain B6C3F1, females, oral dosing, site: lung, lesion: several types, types named in the paper, dosed 76 weeks, study length 76 weeks) was “negative (inactive)”; the carcinogen call (mouse, strain B6C3F1, males, oral dosing, site: liver, lesion: hepatoma, dosed 76 weeks, study length 76 weeks) was “negative (inactive)”. Besides, under “mouse, strain B6C3F1, males, oral dosing, site: lung, lesion: several types, types named in the paper, dosed 76 weeks, study length 76 weeks”, the carcinogen call is “negative (inactive)”.

What is called TD50 is the 50% point of the dose-response relation for the toxic effect studied.

(Values after PubChem BioAssay AID1745844 (Carcinogenic Potency Database (CPDB), 2022).)
